This is an account of results in publication PMC7067379, “Mapping the S1 and S1’ subsites of cysteine proteases with new dipeptidyl nitrile inhibitors as trypanocidal agents” (PLoS Neglected Tropical Diseases, 2020).

One series deals with cathepsin L (CatL) (Homo sapiens, UniProt P07711). Description: Cathepsin L enzyme inhibition. As to conditions: SD lower than 15%; for Ki: read-out: pKi CatL (converted). Type of series: biochemical.
In another series the target is cathepsin S (CatS) (Homo sapiens, UniProt P25774). Description: Cathepsin S enzyme inhibition. The class given is biochemical. As to conditions: SD lower than 15%; read-out: pKi CatS (converted). As for the experimental part:
(§1) Enzyme inhibition studies for Cz and LmCPB were performed as previously described for Cz. The experimental procedures are described in the Supporting Information (see chapter S3). Cathepsins B, L, S were assayed as reported.

Series [1] has as its target T1, Human recombinant cathepsin K (Homo sapiens, UniProt P43235).
T1 sequence (P43235 115-329): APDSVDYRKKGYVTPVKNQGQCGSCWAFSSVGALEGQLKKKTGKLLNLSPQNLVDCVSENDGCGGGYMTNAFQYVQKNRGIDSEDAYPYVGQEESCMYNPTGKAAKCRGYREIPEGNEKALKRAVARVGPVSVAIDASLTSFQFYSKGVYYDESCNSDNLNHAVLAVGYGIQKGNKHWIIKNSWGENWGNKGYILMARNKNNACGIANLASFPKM
Description: Cathepsin K assay. Type of series: biochemical. Particulars: SD lower than 15%; read-out: pKi CatK (converted). As for the experimental part: Human recombinant cathepsin K was assayed on a FLUOSTAR Optima plate reader at 25 °C with an excitation wavelength of 360 nm and an emission wavelength of 440 nm on a 96 well plate. The enzyme solution (23 μg/mL in 50 mM sodium acetate pH 5.5, 50 mM NaCl, 0.5 mM EDTA, 5 mM DTT) was diluted 1:100 with assay buffer (100 mM sodium citrate buffer pH 5.0, 100 mM NaCl, 1 mM EDTA, 0.01% CHAPS) containing 5 mM DTT and was then incubated at 37 °C for 30 min for activation. A 1.5 mM stock solution of the substrate Z-Leu-Arg-AMC was prepared in DMSO. […] The assay was performed with a final concentration of cathepsin K of 1.73 ng/mL. Stock solutions of inhibitors were prepared in DMSO. The final DMSO concentration was 2% (4 μL). Into a well containing 194.5 μL assay buffer, 0.8 μL of the fluorogenic substrate, DMSO and inhibitor solution (3.2 μL) were added. Upon addition of cathepsin K (1.5 μL), the measurement was started and followed for 20 min.

Series [2] is described as follows: Mammalian cytotoxicity assay (MTT).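 Also: Read-out is absorbance at 570 nm of formazan taken up in DMSO.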 Type of series: cell-based. Particulars: rhesus monkey, LLCMK2 cells.
Description: LLCMK2 cells were cultured in 96-well plates at a concentration of 5 x 10^4 cells/ml. After 48 h, the plates were washed twice with PBS and 200 μL RPMI medium was added with serial dilutions of the compounds and benznidazole (1.95 μM to 250 μM) in triplicate. After 72 h at 37 °C, the cytotoxic activity of the compounds was determined by the classical MTT [3- (4,5-dimethylthiazol-2-yl) -2,5-diphenyltetrazolium bromide] method. Briefly, 50 μL MTT dissolved in PBS (2.0 mg mL^-1) was added to each well and the plates were incubated for 4 h at 37 °C. The formed formazan crystals were dissolved with DMSO (50 μL/well) and the absorbance of the samples was measured by spectrophotometer at 570 nm after 30 min.
The target in series [3] is Leishmania mexicana CPB (LmCPB) (Leishmania mexicana, UniProt P36400). The series can be described thus: LmCPB enzyme inhibition. Type of series: biochemical. As to the method: as §1
Series [4] has as its system T. cruzi Tulahuen LacZ strain, intracellular amastigote forms. The series can be described thus: In vitro trypanocidal activity on intracellular amastigote forms (Tulahuen strain). Type of series: cell-based, Trypanosoma cruzi. Particulars: for SI (selective index): from EC50 (T. cruzi) and CC50 (LLCMK2). As to the method: Cells were evaluated in 96-well plates. Cells from the LLCMK2 lineage were plated at a concentration of 5x10^4 cells mL^-1. Trypomastigote forms of the Tulahuen LacZ strain were added at a concentration of 5×10^5 parasites mL^-1 and placed in the incubator at 37°C with 5% CO2 for 24 h. After the incubation period, the trypomastigote forms present were removed by successive washes with PBS, remaining only as intracellular amastigote forms. Compounds were added at different concentrations (1.95 μM to 250 μM serial dilutions) and incubated for 72 h. At the end of this period, the substrate CPRG (chlorophenol red β-D-galactopyranoside, 400 μM in 0.3% Triton X-100, pH 7.4) was added. […] Benznidazole was used as a positive control in the same concentrations as the substances, and DMSO as a negative control. Compounds were solubilized in DMSO. The selectivity index (SI) was calculated using the formula: […]. All statistical analyses were done with the program GraphPad Prism v.5.

For another series, the target named is recombinant cruzain (Cz) (Trypanosoma cruzi, UniProt P25779). Description: Cruzain enzyme inhibition. The class given is biochemical. As for the experimental part:
as §1

The next series has as its target cathepsin B (CatB) (Homo sapiens, UniProt P07858). Description: Cathepsin B enzyme inhibition. Type of series: biochemical. As to conditions: for remaining activity at 10 µM: replicates = 2, n.i. = no inhibition observed at 10 μM; for Ki: SD lower than 15%, read-out: pKi CatB (converted).
[5] abbreviates: LLCMK2, 72 h, MTT, Table 2, read-out: CC50 cytotoxicity.
The mark [6] stands for this setting: S1 Table, maximum concentration used 250 µM, read-out: CC50.
The mark [7] stands for this setting: SD lower than 15%, read-out: pKi LmCPB (converted).
The mark [8] stands for this setting: Trypanosoma cruzi, TULAHUEN, 72 h, amastigote, Tulahuen strain, 72 h, Table 2, read-out: EC50 trypanocidal activity.
The mark [9] stands for this setting: Trypanosoma cruzi, TULAHUEN, T. cruzi amastigote form, S1 Table, read-out: pEC50 (converted).
Setting [10] is: SD lower than 15%, read-out: pKi Cz (converted).
[11] abbreviates: Trypanosoma cruzi, TULAHUEN, S1 Table, maximum concentration used 250 µM, read-out: EC50 T. cruzi.
The mark [12] stands for this setting: Trypanosoma cruzi, TULAHUEN, read-out: EC50 T. cruzi, S1 Table, maximum concentration used 250 µM.
Setting [13] is: Trypanosoma cruzi, TULAHUEN, read-out: pEC50, T. cruzi amastigote form (converted), S1 Table.

Read-outs that look alike come from different tables or passages of the source.

Leishmania mexicana CPB (LmCPB), sequence (P36400 126-443): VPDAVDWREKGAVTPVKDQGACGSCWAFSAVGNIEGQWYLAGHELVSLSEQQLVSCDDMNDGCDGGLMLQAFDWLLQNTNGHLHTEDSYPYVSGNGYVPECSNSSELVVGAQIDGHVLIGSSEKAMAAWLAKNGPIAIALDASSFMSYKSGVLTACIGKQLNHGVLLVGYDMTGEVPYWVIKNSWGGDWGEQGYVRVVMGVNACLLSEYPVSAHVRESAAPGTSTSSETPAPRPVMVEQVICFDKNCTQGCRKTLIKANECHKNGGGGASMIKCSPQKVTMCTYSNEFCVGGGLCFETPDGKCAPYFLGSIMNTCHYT
cathepsin L (CatL), sequence (P07711 114-333): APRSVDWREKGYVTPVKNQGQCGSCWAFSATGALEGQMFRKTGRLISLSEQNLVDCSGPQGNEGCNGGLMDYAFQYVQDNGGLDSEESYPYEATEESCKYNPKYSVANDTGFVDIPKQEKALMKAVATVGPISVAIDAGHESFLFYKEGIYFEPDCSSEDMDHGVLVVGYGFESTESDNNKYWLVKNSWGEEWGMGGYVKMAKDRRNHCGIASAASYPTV
recombinant cruzain (Cz), sequence (P25779 123-337): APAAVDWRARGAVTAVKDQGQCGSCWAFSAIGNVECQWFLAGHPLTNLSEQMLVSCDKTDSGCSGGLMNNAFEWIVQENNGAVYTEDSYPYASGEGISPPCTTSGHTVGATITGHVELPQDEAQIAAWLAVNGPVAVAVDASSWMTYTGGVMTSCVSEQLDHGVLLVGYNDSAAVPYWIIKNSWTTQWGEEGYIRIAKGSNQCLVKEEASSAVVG
cathepsin S (CatS), sequence (P25774 115-331): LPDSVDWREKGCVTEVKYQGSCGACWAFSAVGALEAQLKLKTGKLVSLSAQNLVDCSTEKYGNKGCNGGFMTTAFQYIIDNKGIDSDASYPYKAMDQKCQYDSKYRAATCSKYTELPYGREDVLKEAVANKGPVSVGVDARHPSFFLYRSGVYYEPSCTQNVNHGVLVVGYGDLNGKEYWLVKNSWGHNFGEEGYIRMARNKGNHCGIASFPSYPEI

Compound `CC(C)CC(C#N)NC(=O)[C@H](Cc1ccccc1)NC(=O)c1cc(C(C)(C)C)nn1C` (stereo in doubt) [Compound 53, 3-(tert-Butyl)-N-((S)-1-(((S)-1-cyano-3-methylbutyl)amino)-1-oxo-3-phenylpropan-2-yl)-1-methyl-1H-pyrazole-5-carboxamide] yielded a melting point of 91 to 94 °C. Further, at cathepsin L (CatL), the Ki is 100 nM. The Ki on cathepsin S (CatS) was 1000 nM. In [1], the Ki was 1000 nM. The CC50 at 72 h in series [2] (setting [5]) was more than 100 µM. Moreover, the CC50 at 72 h in series [2] (setting [6]) worked out at 132 µM. For the same compound, the Ki in series [3] (setting [7]) is 398 nM. Also, the EC50 in series [4] (setting [8]) was 26 ± 2.6 µM. Moreover, in series [4] (setting [9]), the EC50 was 25.1 µM. The “SI (selective index)” value in [4] (Table 2) is more than 3.8. Further, on recombinant cruzain (Cz) (setting [10]), the Ki is 316 nM. This compound also registered a remaining activity at 10 µM on cathepsin B (CatB) of 90%.
Take `O=C(Cn1ccnc1[N+](=O)[O-])NCc1ccccc1` [Benznidazole, reference compound]: the CC50 at 72 h in [2] (setting [5]) was more than 100 µM. In addition, the EC50 in series [4] (setting [8]) is 4.4 ± 0.47 µM; in [4] (setting [11]) it was 4.3 µM; in series [4] (setting [9]), 3.98 µM. Also, the “SI (selective index)” value in [4] (Table 2) is more than 23.
For `N#CC1(NC(=O)[C@H](Cc2ccccc2)NC(=O)c2ccccc2)CC1` [Compound 6], at cathepsin L (CatL), the “pKi CatL” value came to 7.4. Moreover, the values for the Ki (at cathepsin S (CatS); in [1]; in series [3] (setting [7])) were 79.4 nM, 398 nM and 251 nM, respectively. For the same compound, the EC50 in [4] (setting [12]) and in [4] (setting [13]) was more than 100 µM throughout.
With `N#CC1(NC(=O)[C@H](Cc2cccc(Cl)c2)NC(=O)c2ccccc2)CC1` [Compound 7, (S)-N-(3-(3-Chlorophenyl)-1-((1-cyanocyclopropyl)amino)-1-oxopropan-2-yl)benzamide], the melting point was 213 to 215 °C. The Ki at cathepsin L (CatL) was 50.1 nM. For the same compound, on cathepsin S (CatS), the Ki is 20 nM. Besides, the Ki in series [1] is 631 nM. Also, the CC50 at 72 h in series [2] (setting [6]) came to 4 µM. Further, in series [3] (setting [7]), the Ki is 631 nM. Further, in series [4] (setting [12]), the EC50 was more than 100 µM. In addition, in [4] (setting [13]), the EC50 is more than 100 µM. For the same compound, the Ki on recombinant cruzain (Cz) (setting [10]) was 126 nM. For the same compound, the Ki at cathepsin B (CatB) is 3.16 µM.
On to `Cn1nc(C(C)(C)C)cc1C(=O)N[C@@H](Cc1ccccc1)C(=O)NC1(C#N)CC1` [Compound 9], for which the Ki at cathepsin L (CatL) was 6.31 nM; at cathepsin S (CatS), 158 nM; in [1] it was 316 nM; in [3] (setting [7]), 79.4 nM; on recombinant cruzain (Cz) (setting [10]), 50.1 nM; at cathepsin B (CatB) it was 15.8 µM. Also, the CC50 at 72 h in [2] (setting [5]) was more than 100 µM. For the same compound, the EC50 in series [4] (Trypanosoma cruzi, TULAHUEN, 72 h, read-out: EC50 trypanocidal activity, amastigote, Tulahuen strain, 72 h, Table 2) was 71.8 µM; in [4] (setting [13]) it was 79.4 µM; in series [4] (amastigote, Tulahuen strain, 72 h, Table 2, read-out: EC50 trypanocidal activity), 72 ± 5.7 µM. In series [4] (Table 2), the “SI (selective index)” value is reported as more than 1.4.
Turning to `Cn1nc(C(C)(C)C)cc1C(=O)N[C@@H](Cc1ccncc1)C(=O)NC1(C#N)CC1` [Compound 10, (S)-3-(tert-Butyl)-N-(1-((1-cyanocyclopropyl)amino)-1-oxo-3-(pyridin-4-yl)propan-2-yl)-1-methyl-1H-pyrazole-5-carboxamide], the Ki at cathepsin L (CatL) was 25.1 nM; at cathepsin S (CatS), 2510 nM; in [1], 10000 nM; in [3] (setting [7]), 398 nM; at recombinant cruzain (Cz) (setting [10]) it was 251 nM. For the same compound, the 50% cytotoxic concentration (CC50) at 72 h in series [2] (setting [5]) was more than 100 µM. Further, the EC50 in series [4] (setting [8]) was 67.6 ± 8.22 µM; in [4] (setting [13]) it was 63.1 µM. Further, the “SI (selective index)” value in series [4] (Table 2) is reported as more than 1.5. The remaining activity at 10 µM at cathepsin B (CatB) came to 93%.
As for `CC(C)C[C@H](NC(=O)c1cc(C(C)(C)C)nn1C)C(=O)NC1(C#N)CC1` [Compound 11], the Ki on cathepsin L (CatL) is 25.1 nM; at cathepsin S (CatS), 39.8 nM; in series [1] it was 5.01 nM; in series [3] (setting [7]), 50.1 nM; on recombinant cruzain (Cz) (setting [10]), 15.8 nM; at cathepsin B (CatB) it was 31.6 µM. For the same compound, in [2] (setting [6]), the CC50 at 72 h is more than 100 µM. The EC50 in series [4] (setting [12]) and in series [4] (setting [13]) was more than 100 µM in each case. The “difference in pKi, Cz” value at recombinant cruzain (Cz) (relative to compound 9, sign not given, direction by cell colour or wording) worked out at 0.5.
For the compound `Cn1nc(C(C)(C)C)cc1C(=O)N[C@@H](Cc1ccccc1)C(=O)N[C@H](C#N)Cc1ccncc1` [Compound 55, 3-(tert-Butyl)-N-((S)-1-(((S)-1-cyano-2-(pyridin-4-yl)ethyl)amino)-1-oxo-3-phenylpropan-2-yl)-1-methyl-1H-pyrazole-5-carboxamide], the Ki at cathepsin L (CatL) is 5.01 nM; at cathepsin S (CatS), 63.1 nM; in series [1], 316 nM; in series [3], 63.1 nM; on recombinant cruzain (Cz), 31.6 nM; on cathepsin B (CatB) it was 15.8 µM. In series [2] (setting [6]), the CC50 at 72 h is more than 100 µM. Also, the EC50 in series [4] (setting [11]) and in series [4] (setting [9]) was more than 100 µM in each case.
On to `C[C@@H](OCc1ccccc1)[C@@H](C#N)NC(=O)[C@H](Cc1cccc(Cl)c1)NC(=O)c1cc(C(C)(C)C)nn1C` [Compound 60, N-((S)-1-(((1R,2R)-2-(Benzyloxy)-1-cyanopropyl)amino)-3-(3-chlorophenyl)-1-oxopropan-2-yl)-3-(tert-butyl)-1-methyl-1H-pyrazole-5-carboxamide], for which the Ki was 7.94 nM on cathepsin L (CatL); 316 nM on cathepsin S (CatS); 1000 nM in series [1]; 158 nM in [3] (setting [7]); 63.1 nM at recombinant cruzain (Cz) (setting [10]); 0.501 µM on cathepsin B (CatB). Further, the half-maximal cytotoxic concentration (CC50) at 72 h in [2] (setting [5]) is more than 100 µM; in series [2] (setting [6]) it was 125 µM. Besides, the EC50 in series [4] (setting [8]) is 4.9 ± 0.45 µM; in [4] (setting [9]), 5.01 µM. Besides, the “fold increase in trypanocidal potency” value in series [4] (compared with compound 9) is on record as 14.5 fold. Moreover, the “SI (selective index)” value in [4] (Table 2) is reported as more than 20.
As to `C[C@@H](O)[C@@H](C#N)NC(=O)[C@H](Cc1cccc(Cl)c1)NC(=O)c1cc(C(C)(C)C)nn1C` [Compound 69, 3-(tert-butyl)-N-((S)-3-(3-chlorophenyl)-1-(((1R,2R)-1-cyano-2-hydroxypropyl)amino)-1-oxopropan-2-yl)-1-methyl-1H-pyrazole-5-carboxamide], the Ki at cathepsin L (CatL) is 6.31 nM; at cathepsin S (CatS) it was 251 nM; in series [1], 794 nM; in series [3] (setting [7]), 1000 nM; at recombinant cruzain (Cz) (setting [10]) it was 126 nM; on cathepsin B (CatB), 6.31 µM. Also, the CC50 at 72 h in series [2] (setting [5]) was more than 100 µM. Besides, the EC50 in series [4] (setting [8]) was 30.6 ± 3.11 µM; in series [4] (setting [11]), 30.5 µM; in series [4] (setting [9]) it was 31.6 µM.

For orientation: melting point means the temperature of the solid-liquid transition. By CC50 is commonly meant the concentration giving 50% cytotoxicity. The term remaining activity denotes what remains of the control signal, in per cent. Low values mean little activity left, high ones much activity left.
